According to ChEMBL document CHEMBL1201862, “PubChem BioAssay data set” (2004):
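Values below derive from 48-hour exposures of cells grown in 96-well plates, with endpoints linearly interpolated between the two concentrations bracketing the appropriate inhibition level. Here, GI50 denotes the concentration required for 50% inhibition of growth.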 Active and inactive are the calls of the source. Rule as the data show it: active = GI50 up to about 1.1 µM and inactive = higher.

How the values were obtained:
Test in all cases: NCI-60 cell line screen, 48 h
U-251 = tested on: U-251
EKVX = tested on: EKVX
OVCAR-5 = tested on: OVCAR-5
SK-MEL-2 = tested on: SK-MEL-2
TK-10 = tested on: TK-10
786-0 = tested on: 786-0
SK-OV-3 = tested on: SK-OV-3
HCT-116 = tested on: HCT-116
OVCAR-8 = tested on: OVCAR-8
SNB-75 = tested on: SNB-75
LOX IMVI = tested on: LOX IMVI
CCRF-CEM = tested on: CCRF-CEM
LXFL 529 = tested on: LXFL 529
SW-620 = tested on: SW-620
RXF 393 = tested on: RXF 393
IGROV-1 = tested on: IGROV-1
COLO 205 = tested on: COLO 205
HOP-62 = tested on: HOP-62
MOLT-4 = tested on: MOLT-4
KM12 = tested on: KM12
SNB-78 = tested on: SNB-78
SNB-19 = tested on: SNB-19
DMS-273 = tested on: DMS-273
HCC 2998 = tested on: HCC 2998
OVCAR-4 = tested on: OVCAR-4
K562 = tested on: K562
HCT-15 = tested on: HCT-15
HL-60 = tested on: HL-60
HT-29 = tested on: HT-29
HOP-92 = tested on: HOP-92
CAKI-1 = tested on: CAKI-1
M19-MEL = tested on: M19-MEL
UO-31 = tested on: UO-31
NCI-H460 = tested on: NCI-H460
RPMI-8226 = tested on: RPMI-8226
ACHN = tested on: ACHN
NCI-H226 = tested on: NCI-H226
SK-MEL-28 = tested on: SK-MEL-28
DLD-1 = tested on: DLD-1
OVCAR-3 = tested on: OVCAR-3
Malme-3M = tested on: Malme-3M
SF-295 = tested on: SF-295
A498 = tested on: A498
DMS-114 = tested on: DMS-114
KM-20L2 = tested on: KM-20L2
HOP-18 = tested on: HOP-18
UACC-257 = tested on: UACC-257
A549 = tested on: A549
UACC-62 = tested on: UACC-62
M14 = tested on: M14
NCI-H522 = tested on: NCI-H522
SF-268 = tested on: SF-268
NCI-H23 = tested on: NCI-H23
SF-539 = tested on: SF-539
SK-MEL-5 = tested on: SK-MEL-5
SN12C = tested on: SN12C
SR = tested on: SR

CC12CCC3(C1)[C@H](CC2=O)C[C@@H](OC(=O)c1ccccc1)C1C(C)(CO)CCC[C@@]13C (stereo partly specified) was tested, and the GI50 (U-251) was 2.38 µM (inactive), the GI50 (EKVX) was 3.96 µM (inactive) and the GI50 (OVCAR-5) was 2 µM (inactive). For the same molecule, the GI50 (SK-MEL-2) was 8.32 µM (inactive), the GI50 (TK-10) was > 21.9 µM (inactive) and the GI50 (786-0) was 1.82 µM (inactive). The GI50 (SK-OV-3) was 17.1 µM (inactive), the GI50 (HCT-116) was 2.22 µM (inactive) and the GI50 (OVCAR-8) was 3.13 µM (inactive). The GI50 (SNB-75) was 9.14 µM (inactive), the GI50 (LOX IMVI) was 2.17 µM (inactive) and the GI50 (CCRF-CEM) was 2.29 µM (inactive). For the same molecule, the GI50 (LXFL 529) was 0.6 µM (active), the GI50 (SW-620) was 2.37 µM (inactive) and the GI50 (RXF 393) was 1.71 µM (inactive). The GI50 (IGROV-1) was 6.49 µM (inactive), the GI50 (COLO 205) was 4.35 µM (inactive) and the GI50 (HOP-62) was 5.41 µM (inactive). For the same molecule, the GI50 (MOLT-4) was 1.54 µM (inactive), the GI50 (KM12) was 2.9 µM (inactive) and the GI50 (SNB-78) was 34 µM (inactive). The GI50 (SNB-19) was 5.86 µM (inactive), the GI50 (DMS-273) was 0.625 µM (active) and the GI50 (HCC 2998) was 1.97 µM (inactive). The GI50 (OVCAR-4) was 1.44 µM (inactive), the GI50 (K562) was 0.416 µM (active) and the GI50 (HCT-15) was 1.5 µM. The GI50 (HL-60) was 0.327 µM (active), the GI50 (HT-29) was 3.56 µM (inactive) and the GI50 (HOP-92) was 3.65 µM (inactive). For the same molecule, the GI50 (CAKI-1) was 0.861 µM (active), the GI50 (M19-MEL) was 3.4 µM (inactive) and the GI50 (UO-31) was 4.15 µM (inactive). The GI50 (NCI-H460) was 1.05 µM (active), the GI50 (RPMI-8226) was 0.746 µM (active) and the GI50 (ACHN) was 0.342 µM (active). The GI50 (NCI-H226) was 1.6 µM (inactive), the GI50 (SK-MEL-28) was 13.3 µM (inactive) and the GI50 (DLD-1) was 2.48 µM (inactive). For the same molecule, the GI50 (OVCAR-3) was 0.24 µM (active), the GI50 (Malme-3M) was 9.42 µM (inactive) and the GI50 (SF-295) was 0.322 µM (active). For the same molecule, the GI50 (A498) was 3.12 µM (inactive), the GI50 (DMS-114) was 0.156 µM (active) and the GI50 (KM-20L2) was 1.82 µM (inactive). The GI50 (HOP-18) was 26.7 µM (inactive), the GI50 (UACC-257) was 0.149 µM (active) and the GI50 (A549) was 3.46 µM (inactive). The GI50 (UACC-62) was 0.0288 µM (active), the GI50 (M14) was 3.61 µM (inactive) and the GI50 (NCI-H522) was 2.02 µM (inactive). For the same molecule, the GI50 (SF-268) was 5.11 µM (inactive), the GI50 (NCI-H23) was 0.681 µM (active) and the GI50 (SF-539) was 6.08 µM (inactive). The GI50 (SK-MEL-5) was < 0.01 µM (active) and the GI50 (SN12C) was 4.35 µM (inactive).

With Cn1ccnc1CCc1ccc(Cl)c(Cl)c1 the GI50 (U-251) was > 100 µM (inactive), the GI50 (OVCAR-5) was > 100 µM (inactive) and the GI50 (SK-MEL-2) was > 100 µM (inactive). For the same molecule, the GI50 (TK-10) was > 100 µM (inactive), the GI50 (786-0) was > 100 µM (inactive) and the GI50 (SK-OV-3) was > 100 µM (inactive). The GI50 (HCT-116) was > 100 µM (inactive), the GI50 (OVCAR-8) was > 100 µM (inactive) and the GI50 (SNB-75) was 37.3 µM (inactive). The GI50 (LOX IMVI) was > 100 µM (inactive), the GI50 (CCRF-CEM) was > 100 µM (inactive) and the GI50 (LXFL 529) was > 100 µM (inactive). For the same molecule, the GI50 (SW-620) was > 100 µM (inactive), the GI50 (RXF 393) was > 100 µM (inactive) and the GI50 (IGROV-1) was > 100 µM (inactive). For the same molecule, the GI50 (COLO 205) was > 100 µM (inactive), the GI50 (HOP-62) was > 100 µM (inactive) and the GI50 (MOLT-4) was > 100 µM (inactive). The GI50 (KM12) was > 100 µM (inactive), the GI50 (SNB-78) was > 100 µM (inactive) and the GI50 (SR) was > 100 µM (inactive). The GI50 (DMS-273) was > 100 µM (inactive), the GI50 (OVCAR-4) was > 100 µM (inactive) and the GI50 (K562) was 54.7 µM (inactive). The GI50 (HCT-15) was over 100 µM, the GI50 (HL-60) was 69 µM (inactive) and the GI50 (HT-29) was 86.7 µM (inactive). The GI50 (HOP-92) was 43.3 µM (inactive), the GI50 (CAKI-1) was > 100 µM (inactive) and the GI50 (M19-MEL) was > 100 µM (inactive). For the same molecule, the GI50 (UO-31) was 50.5 µM (inactive), the GI50 (NCI-H460) was > 100 µM (inactive) and the GI50 (RPMI-8226) was > 100 µM (inactive). The GI50 (ACHN) was > 100 µM (inactive), the GI50 (NCI-H226) was > 100 µM (inactive) and the GI50 (SK-MEL-28) was > 100 µM (inactive). The GI50 (DLD-1) was > 100 µM (inactive), the GI50 (OVCAR-3) was 74.1 µM (inactive) and the GI50 (Malme-3M) was > 100 µM (inactive). The GI50 (SF-295) was > 100 µM (inactive), the GI50 (A498) was 73.5 µM (inactive) and the GI50 (DMS-114) was 67.5 µM (inactive). The GI50 (KM-20L2) was > 100 µM (inactive), the GI50 (HOP-18) was 47.1 µM (inactive) and the GI50 (UACC-257) was > 100 µM (inactive). For the same molecule, the GI50 (A549) was > 100 µM (inactive), the GI50 (UACC-62) was > 100 µM (inactive) and the GI50 (M14) was > 100 µM (inactive). For the same molecule, the GI50 (NCI-H522) was > 100 µM (inactive), the GI50 (SF-268) was > 100 µM (inactive) and the GI50 (NCI-H23) was > 100 µM (inactive). The GI50 (SF-539) was > 100 µM (inactive), the GI50 (SK-MEL-5) was 37.5 µM (inactive) and the GI50 (SN12C) was > 100 µM (inactive).

With O=[N+]([O-])c1ccc(/C=C/c2csnn2)cc1 the GI50 (U-251) was > 100 µM (inactive), the GI50 (EKVX) was > 100 µM (inactive) and the GI50 (OVCAR-5) was > 100 µM (inactive). For the same molecule, the GI50 (SK-MEL-2) was > 100 µM (inactive), the GI50 (TK-10) was > 100 µM (inactive) and the GI50 (786-0) was > 100 µM (inactive). The GI50 (SK-OV-3) was > 100 µM (inactive), the GI50 (HCT-116) was > 100 µM (inactive) and the GI50 (OVCAR-8) was > 100 µM (inactive). The GI50 (LOX IMVI) was > 100 µM (inactive), the GI50 (CCRF-CEM) was > 100 µM (inactive) and the GI50 (LXFL 529) was > 100 µM (inactive). For the same molecule, the GI50 (SW-620) was > 100 µM (inactive), the GI50 (RXF 393) was > 100 µM (inactive) and the GI50 (IGROV-1) was > 100 µM (inactive). The GI50 (HOP-62) was > 100 µM (inactive), the GI50 (MOLT-4) was > 100 µM (inactive) and the GI50 (KM12) was > 100 µM (inactive). For the same molecule, the GI50 (SNB-78) was > 100 µM (inactive), the GI50 (SNB-19) was > 100 µM (inactive) and the GI50 (HCC 2998) was > 100 µM (inactive). For the same molecule, the GI50 (OVCAR-4) was > 100 µM (inactive), the GI50 (K562) was > 100 µM (inactive) and the GI50 (HCT-15) was over 100 µM. The GI50 (HL-60) was > 100 µM (inactive), the GI50 (HT-29) was > 100 µM (inactive) and the GI50 (HOP-92) was 70.5 µM (inactive). For the same molecule, the GI50 (CAKI-1) was > 100 µM (inactive), the GI50 (M19-MEL) was > 100 µM (inactive) and the GI50 (UO-31) was > 100 µM (inactive). For the same molecule, the GI50 (NCI-H460) was > 100 µM (inactive), the GI50 (RPMI-8226) was > 100 µM (inactive) and the GI50 (ACHN) was > 100 µM (inactive). For the same molecule, the GI50 (NCI-H226) was > 100 µM (inactive), the GI50 (SK-MEL-28) was > 100 µM (inactive) and the GI50 (DLD-1) was > 100 µM (inactive). For the same molecule, the GI50 (OVCAR-3) was > 100 µM (inactive), the GI50 (Malme-3M) was > 100 µM (inactive) and the GI50 (SF-295) was > 100 µM (inactive). The GI50 (DMS-114) was > 100 µM (inactive), the GI50 (HOP-18) was > 100 µM (inactive) and the GI50 (UACC-257) was > 100 µM (inactive). The GI50 (A549) was > 100 µM (inactive), the GI50 (UACC-62) was > 100 µM (inactive) and the GI50 (M14) was > 100 µM (inactive). For the same molecule, the GI50 (NCI-H522) was > 100 µM (inactive), the GI50 (SF-268) was > 100 µM (inactive) and the GI50 (NCI-H23) was > 100 µM (inactive). The GI50 (SF-539) was > 100 µM (inactive), the GI50 (SK-MEL-5) was > 100 µM (inactive) and the GI50 (SN12C) was > 100 µM (inactive).
